Entries after “also recorded” stand apart in the source; their conditions may differ. Where no end group is shown, it is not given here.
How the values were obtained:
diet-induced obese mice = test: Intraperitoneal glucose tolerance test (ipGTT); type: in vivo, mouse; settings: glucose 2 g/kg BW ip, overnight fasted, VHFD 24 weeks, 16 weeks infusion (FIG. 5C)
Procedure: FIGS. 5C-D are a pair of line graphs Plasma glucose levels (FIG. 5C) and (FIG. 5D) Plasma insulin levels after an intraperitoneal glucose administration ([…] BW ip) in overnight fasted mice fed in VHFD for 24-weeks and 16-weeks of continuous infusions of vehicle or GLP-1(32-36)amide. ***p<4E-03 vehicle vs. GLP-1(32-36)amide, *p<0.01 vehicle vs. GLP-1(32-36)amide, **p<0.004 vehicle vs. GLP-1(32-36)amide, *****p<1.7E-05 vehicle vs. GLP-1(32-36)amide, ****p<6.7 E-04 vehicle vs. GLP-1(32-36)amide.
Mice were maintained in a normal light/dark cycle according to the standard protocols of the MGH Animal Care and Use Committee. Mice were tested with age matched or litter mate controls and 6 mice per group are required. […] The following morning the mice were prepared for the glucose tolerance test: animals were weighed, the tail was nicked with a fresh razor blade by a horizontal cut of the very end, ˜35 to 50 microliters of blood is massaged from the tail to an eppendorf tube which is immediately placed on ice, baseline blood glucose is measured by the glucose oxidase method using a Glucometer Elite glucometer, and 2 grams/kg body weight of 20% D-glucose is drawn up in a Beckton Dickenson D 29 gage ½″ insulin syringe (one unit of D-glucose for every gram of body weight). Animals were then transferred to individually labeled 1000 cc cardboard soup cups with the lid liners removed.
Following animal preparation, glucose was injected into the intraperitoneal cavity. At 10, 20, 30, 60, 120, and 140 minutes blood glucose is sampled from the tail of each mouse by gently massaging a small drop of blood onto the glucometer strip. Glucose injections and blood glucose sampling is timed to take approximately the same amount of time per animal (i.e. 25 animals are injected in 12 minutes and blood glucose sampling of those same 25 animals should also take about 12 minutes) so that the sample times are accurate for each animal.

[1] = test system: insulin-resistant isolated mouse hepatocytes; test: ROS formation assay (isolated primary hepatocytes); type: cell-based; settings: 30 mM glucose 24 h; peptide 10 pM, 100 pM and 100 nM (FIG. 9A)
Procedure: FIG. 9A is a bar graph showing suppression of the production of reactive oxygen species (ROS) by the pentapeptide GLP-1(32-36)amide in insulin-resistant isolated mouse hepatocytes. Hepatocytes were rendered insulin-resistant by their pre-incubation in 30 mM glucose. Primary hepatocytes from C57BL/6J mice were seeded at 2×10^5 cell per well in twelve-well plates and treated for 24 h with 30 mM glucose in the absence of presence of GLP-1(32-36)amide (10 pM, 100 pM and 100 nM). To measure ROS levels cells were washed twice in HBSS (Hanks' Balance Salt Solution) and incubated with 10 uM 5-(and 6)-carboxy-2′,7′-dichlorohydro-fluorescein diacetate (CM-H2DCFDA) (Molecular Probes) for 45 minutes. The media were removed and cells were lysed. ROS was measured in the cell lysates using a spectrofluorometer (485 nm/535 nm). Data were normalized to values obtained from untreated controls. The data shown are the means of two independent hepatocyte isolations+/−SEMs.
Primary hepatocytes from diet-induced obese (DIO) and C57BL/6J mice were seeded in 12-well plates at a density of 2×10^5/well for 24 h. C57BL/6J hepatocytes were treated with 30 mM glucose in the absence or presence of GLP-1(32-36)amide for 20 to 24 h and compared to DIO hepatocytes treated with GLP-1(32-36)amide. […] ROS was measured in the cell lysates using a spectrofluorometer (485 nm/535 nm). […]

H4IIe hepatoma cells = test: ROS formation assay (H4IIe hepatoma cells); type: cell-based; settings: 0.2 mM palmitate 24 hr, 100 pM peptide (FIG. 9B)
Procedure: FIG. 9B is a bar graph showing inhibition of the production of ROS in H4IIe hepatoma cells. BSA n=14. palmitate n=13. 32-36/palmitate n=12. *p<0.005 palmitate vs BSA, # p<0.03 palmitate vs GLP-1(32-36)a/palmitate
H4IIe cells were seeded in 12-well plates at a density of 1×10^4/well and incubated overnight in media containing 5.0 mM glucose. Media was then supplemented with 0.20 mM palmitate in BSA, with and without 100 pM GLP-1(32-36)amide and incubated for an additional 24 h. Intracellular ROS was measured by 5-(and 6)-carboxy-2′,7′-dichlorohydro-fluorescein diacetate (CM-H2DCFDA) (Molecular Probes) as follows. Cells were washed twice in HBSS (Hanks' Balance Salt Solution) and incubated with 10 uM CM-H2DCFDA for 45 minutes. The media were removed and cells were lysed. ROS was measured in the cell lysates using a spectrofluorometer (485 nm/535 nm). Data were normalized to values obtained from the cells treated with palmitate. BSA n=14. Palmitate n=13. 32-36/Palmitate n=12.

LVKGRamide (LVKGR-NH2) [GLP-1(32-36)amide, pentapeptide derived from the C-terminus of the glucoincretin hormone GLP-1]
glycemic response in ipGTT (diet-induced obese mice): normal
ROS levels [1]: prevented the rise in ROS levels; also recorded: suppression
ROS production (H4IIe hepatoma cells): nearly completely normalizes
ROS production (H4IIe hepatoma cells; listed as GLP-1(32-36)a): inhibition

— patent US10137171B2, “Methods of treatment using a pentapeptide derived from the C-Terminus of Glucagon-Like Peptide 1 (GLP-1)” (The General Hospital Corporation, priority 2011, dated 2018)
